From patent US20020142944A1, “Treatment of ocular disorders” (Erasmus Universiteit Rotterdam, priority 1999, published 2002)

What was measured:
[1] = tested on: bilateral cystoid macular edema; assay: Treatment of cystoid macular edema, single patient; assay type: in vivo, human; details: for effect on the edema or visual acuity: previous therapy before octreotide, eye drops / peribulbar injections
Method: One year later, they noticed blurred vision. Their visual acuity was 20/50 in the right eye and 20/40 in the left eye (by Snellen chart). […] Their visual acuity slowly deteriorated in the subsequent years. […] They had no family history of macular edema. […] The injections were stopped four weeks later, because there was no further improvement.
Treatment with 100 μg or octreotide subcutaneously once daily was resumed. […] […] stopped treatment a second time; after four weeks […] visual acuity was 20/70 in the right eye and 20/50 in the left eye. Octreotide therapy was resumed, and four weeks later […] visual acuity was 20/40 in each eye.

[2] = tested on: refractory CME due to chronic uveitis; assay: Octreotide treatment of 10 patients with refractory CME due to chronic uveitis, three months; assay type: in vivo, human
Method: Patients were treated in accordance to the declaration of Helsinki. In this study, 10 consecutive patients from the Department of Ophthalmology, Erasmus University Medical Center, and the Eye Hospital Rotterdam, were selected because of refractory CME due to chronic uveitis. Since CME in uveitis can be influenced in time by multiple factors, only patients suffering from macular edema for more than 6 months were included, regardless of their immune suppressive treatment. Six patients had bilateral CME and four patients unilateral. Three patients with pars planitis needed no treatment for their inflammation but still had marked CME. Fluorescein angiography was performed within one week before starting octreotide treatment. Octreotide therapy was given after informed consent had been obtained. Dosage was started with 100 μg subcutaneously, on the first day, two times 100 μg on the second day and three times 100 μg from the third day onwards. When possible, the long-acting repeatable (LAR) formulation was prescribed in a dosage of 20 mg per 4 weeks intramuscularly, which became available during the studies. The dose of patient 3, a child, was adjusted for their age to 10 mg per month (im). Immune suppressive treatment was adjusted as based on inflammatory activity. Visual acuity was measured after 2, 4, and 12 weeks of treatment. Fluorescein angiography was repeated after three months of treatment.

[3] = after eight weeks of 100 μg subcutaneously three times daily, before treatment 20/100 in each eye
[4] = four weeks after second stop of treatment
[5] = three months after resuming 100 μg subcutaneously once daily
[6] = within two weeks after first stop of injections
[7] = after three months of treatment
[8] = three months therapy, 10 patients

Q: `C[C@@H](O)[C@@H]1NC(=O)[C@H](CCCCN)NC(=O)[C@@H](Cc2c[nH]c3ccccc23)NC(=O)[C@H](Cc2ccccc2)NC(=O)[C@@H](NC(=O)[C@H](N)Cc2ccccc2)CSSC[C@@H](C(=O)N[C@H](CO)[C@@H](C)O)NC1=O` [octreotide] was tested. Which “ophthalmoscopic finding, cystoid lesions” value ([1]; after eight weeks of 100 μg subcutaneously three times daily) did it give?
A: the cysts had dried

Q: And the “visual acuity in the left eye (Snellen chart)” value [1, 3]?
A: 20/50

Q: What about the “visual acuity in the right eye (Snellen chart)” value [1, 3] of the same compound?
A: 20/40

Q: What about the “visual change noted by the patient” value ([1]; after six weeks of 100 μg subcutaneously three times daily) of the same compound?
A: visual improvement

Q: And the “visual acuity in each eye” value ([1]; four weeks after second resumption of therapy)?
A: 20/40

Q: And the “visual acuity in the left eye after stopping treatment” value [1, 4]?
A: 20/50

Q: And the “visual acuity in the right eye after stopping treatment” value [1, 4]?
A: 20/70

Q: What about the fluorescein angiography finding [1, 5] of the same compound?
A: some foveal fluorascein leakage

Q: And the “visual acuity in each eye” value [1, 5]?
A: 20/40

Q: And the “side effects from the treatment” value ([1]; whole course of treatment)?
A: no side effects

Q: What about the “ophthalmoscopic finding after stopping treatment” value [1, 6] of the same compound?
A: some fluid was observed

Q: What about the “visual acuity in each eye after stopping treatment” value [1, 6] of the same compound?
A: 10/50

Q: And the “fluorescein angiographic macular edema clearly diminished” value [2, 7]?
A: 3 eyes

Q: What about the “fluorescein angiographic macular edema diminished but still visible” value [2, 7] of the same compound?
A: 9 eyes

Q: What about the “fluorescein angiographic macular edema unaltered” value [2, 7] of the same compound?
A: 3 eyes

Q: And the ocular hypertension ([2]; at week 4, 10 patients)?
A: one

Q: What about the “diarrhoea (only side effect observed)” value ([2]; during the first days of treatment, 10 patients) of the same compound?
A: 4 patients

Q: And the “patients in whom visual acuity or inflammation activity deteriorated” value [2, 8]?
A: none

Q: What about the “patients with decreased inflammation, leading to tapered immunosuppressive therapy” value [2, 8] of the same compound?
A: Four

Q: What about the “CME dissolved by stereoscopic examination” value ([2]; three months therapy, 10 patients, six bilateral and four unilateral CME) of the same compound?
A: 5 eyes

Q: What about the “CME diminished by stereoscopic examination” value ([2]; three months therapy, further eyes beside those dissolved) of the same compound?
A: 11 eyes

Q: `C[C@H]1C[C@H]2[C@@H]3CCC4=CC(=O)C=C[C@]4(C)[C@@]3(F)[C@@H](O)C[C@]2(C)[C@@]1(O)C(=O)CO` [betamehtasone, betamethasone] was tested. Which “effect on the edema or visual acuity” value [1] did it give?
A: without beneficial effect

Q: How did the “effect on the edema or visual acuity” value [1] turn out when `CCOC(=O)[C@H](CCc1ccccc1)N[C@@H](C)C(=O)N1CCC[C@H]1C(=O)O` [enalapril] was run?
A: without beneficial effect

Q: How did the “effect on the edema or visual acuity” value [1] turn out when `CC(=O)Nc1nnc(S(N)(=O)=O)s1` [acetazolamide] was run?
A: without beneficial effect

Q: How did the “effect on the edema or visual acuity” value [1] turn out when `O=C(O)Cc1ccccc1Nc1c(Cl)cccc1Cl` [diclofenac] was run?
A: without beneficial effect
